Measured values: patent US12692269B2, “Therapeutic compounds” (Genentech, Inc., priority 2019, dated 2026)
pEC50: −log10 of the molar value.

Assays:
Type in all cases: binding
[1] = molecular target: TEAD4 YAP50-100 (Homo sapiens, UniProt Q15561); test: TEAD4-YAP HTRF (TR-FRET) protein-protein interaction assay; conditions: TEAD4, YAP peptide 50-100, HTRF; for pEC50: read-out: TEAD4 YAP50-100 HTRF combined: EC50
Outline: (§1)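 TEAD YBD (aa 217-447, His-tag) + Eu anti-His; cpd 30 min; + biotin-YAP 50-100 or biotin-TAZ 13-57 / SA-XL665; 60 min RT; TR-FRET 665/615; 4-parameter IC50/EC50.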

[2] = molecular target: TEAD2 TAZ (amino acids 13-57) (Homo sapiens, UniProt Q15562); test: TEAD2-TAZ HTRF (TR-FRET) protein-protein interaction assay; conditions: for TEAD2 TAZ HTRF combined: Max % Inhibition: TEAD2, TAZ peptide; for pEC50: TEAD2-TAZ HTRF, TR-FRET 665 nm/615 nm, read-out: TEAD2 TAZ HTRF combined: EC50
TEAD2 TAZ (amino acids 13-57), sequence (Q15562 217-447): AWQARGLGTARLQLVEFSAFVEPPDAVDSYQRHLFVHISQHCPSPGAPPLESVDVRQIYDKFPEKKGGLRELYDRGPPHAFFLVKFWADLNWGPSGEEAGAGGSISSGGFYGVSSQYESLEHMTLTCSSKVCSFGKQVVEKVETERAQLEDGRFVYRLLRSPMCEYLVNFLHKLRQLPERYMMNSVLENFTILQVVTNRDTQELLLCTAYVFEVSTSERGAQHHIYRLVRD
Outline: as §1

[3] = molecular target: TEAD1 TAZ (amino acids 13-57) (Homo sapiens, UniProt P28347); test: TEAD1-TAZ HTRF (TR-FRET) protein-protein interaction assay; conditions: for TEAD1 TAZ HTRF combined: Max % Inhibition: TEAD1, TAZ peptide; for pEC50: TEAD1-TAZ HTRF, TR-FRET 665 nm/615 nm, read-out: TEAD1 TAZ HTRF combined: EC50
TEAD1 TAZ (amino acids 13-57), sequence (P28347 167-426 limits assumed): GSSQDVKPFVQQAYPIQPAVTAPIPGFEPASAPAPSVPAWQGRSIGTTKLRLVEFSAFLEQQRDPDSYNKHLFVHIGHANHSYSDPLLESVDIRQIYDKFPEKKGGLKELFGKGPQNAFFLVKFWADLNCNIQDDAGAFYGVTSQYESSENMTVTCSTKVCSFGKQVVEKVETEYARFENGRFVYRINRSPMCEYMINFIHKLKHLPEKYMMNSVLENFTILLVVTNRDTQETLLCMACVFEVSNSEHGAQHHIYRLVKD
Outline: as §1

[4] = molecular target: TEAD3 YAP50-100 (Homo sapiens, UniProt Q99594); test: TEAD3-YAP HTRF (TR-FRET) protein-protein interaction assay; conditions: TEAD3, YAP peptide 50-100, HTRF; for pEC50: read-out: TEAD3 YAP50-100 HTRF combined: EC50
TEAD3 YAP50-100, sequence (Q99594 173-435 limits assumed): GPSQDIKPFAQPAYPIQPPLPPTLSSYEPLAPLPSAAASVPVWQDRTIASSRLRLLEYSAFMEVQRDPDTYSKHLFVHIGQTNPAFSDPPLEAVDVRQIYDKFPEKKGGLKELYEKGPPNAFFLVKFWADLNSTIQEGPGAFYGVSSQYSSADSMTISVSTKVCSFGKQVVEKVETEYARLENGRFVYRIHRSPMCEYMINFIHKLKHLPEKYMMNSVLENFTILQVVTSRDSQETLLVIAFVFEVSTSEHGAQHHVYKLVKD
Outline: as §1

[5] = molecular target: TEAD4 TAZ (amino acids 13-57) (Homo sapiens, UniProt Q15561); test: TEAD4-TAZ HTRF (TR-FRET) protein-protein interaction assay; conditions: for TEAD4 TAZ HTRF combined: Max % Inhibition: TEAD4, TAZ peptide; for pEC50: TEAD4-TAZ HTRF, TR-FRET 665 nm/615 nm, read-out: TEAD4 TAZ HTRF combined: EC50
TEAD4 TAZ (amino acids 13-57), sequence (Q15561 217-434 limits assumed): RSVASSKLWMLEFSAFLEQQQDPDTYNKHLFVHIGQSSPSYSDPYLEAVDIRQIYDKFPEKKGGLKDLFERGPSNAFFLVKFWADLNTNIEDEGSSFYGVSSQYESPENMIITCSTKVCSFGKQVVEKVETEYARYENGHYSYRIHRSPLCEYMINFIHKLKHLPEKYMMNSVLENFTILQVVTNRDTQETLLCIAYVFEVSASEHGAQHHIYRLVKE
Outline: as §1

[6] = molecular target: TEAD3 TAZ (amino acids 13-57) (Homo sapiens, UniProt Q99594); test: TEAD3-TAZ HTRF (TR-FRET) protein-protein interaction assay; conditions: for TEAD3 TAZ HTRF combined: Max % Inhibition: TEAD3, TAZ peptide; for pEC50: TEAD3-TAZ HTRF, TR-FRET 665 nm/615 nm, read-out: TEAD3 TAZ HTRF combined: EC50
TEAD3 TAZ (amino acids 13-57), sequence (Q99594 173-435 limits assumed): as the sequence (Q99594 173-435 limits assumed) above
Outline: as §1

[7] = molecular target: TEAD2 YAP50-100 (Homo sapiens, UniProt Q15562); test: TEAD2-YAP HTRF (TR-FRET) protein-protein interaction assay; conditions: TEAD2, YAP peptide 50-100, HTRF; for pEC50: read-out: TEAD2 YAP50-100 HTRF combined: EC50
TEAD2 YAP50-100, sequence (Q15562 217-447): as the sequence (Q15562 217-447) above
Outline: as §1

[8] = molecular target: TEAD1 YAP50-100 (Homo sapiens, UniProt P28347); test: TEAD1-YAP HTRF (TR-FRET) protein-protein interaction assay; conditions: TEAD1, YAP peptide 50-100, HTRF; for pEC50: read-out: TEAD1 YAP50-100 HTRF combined: EC50
TEAD1 YAP50-100, sequence (P28347 167-426 limits assumed): as the sequence (P28347 167-426 limits assumed) above
Outline: as §1

TEAD4 YAP50-100, sequence (Q15561 217-434 limits assumed): as the sequence (Q15561 217-434 limits assumed) above

Structure (SMILES)	TEAD4 YAP50-100 HTRF combined: Max % Inhibition [1] [%]	pEC50 [1]	TEAD2 TAZ HTRF combined: Max % Inhibition [2] [%]	pEC50 [2]	TEAD1 TAZ HTRF combined: Max % Inhibition [3] [%]	pEC50 [3]	TEAD3 YAP50-100 HTRF combined: Max % Inhibition [4] [%]	pEC50 [4]	TEAD4 TAZ HTRF combined: Max % Inhibition [5] [%]	pEC50 [5]	TEAD3 TAZ HTRF combined: Max % Inhibition [6] [%]	pEC50 [6]	TEAD2 YAP50-100 HTRF combined: Max % Inhibition [7] [%]	pEC50 [7]	TEAD1 YAP50-100 HTRF combined: Max % Inhibition [8] [%]	pEC50 [8]
COc1nccnc1-c1nn2c(=O)cc(-c3ccc(C4CCCCC4)cc3)[nH]c2c1C(=O)N1CC(CF)C1 [Compound 13, 5-(4-Cyclohexylphenyl)-3-(3-(fluoromethyl)azetidine-1-carbonyl)-2-(3-methoxypyrazin-2-yl)pyrazolo[1,5-a]pyrimidin-7(4H)-one]	50.0	6.68	60.0	7.70	66.5	7.00	71.5	6.74	40.0	6.89	56.5	6.74	65.0	7.70	74.0	7.10
COc1ccnc(-c2nn3c(=O)cc(-c4ccc(C5CCCCC5)cc4)[nH]c3c2C(=O)N2CC(CF)C2)n1 [Compound 14, 5-(4-Cyclohexylphenyl)-3-(3-(fluoromethyl)azetidine-1-carbonyl)-2-(4-methoxypyrimidin-2-yl)pyrazolo[1,5-a]pyrimidin-7(4H)-one]	50.0	7.22	67.5	8.00	74.0	7.22	61.0	7.05	53.5	7.30	52.5	7.10	62.5	8.00	73.0	7.52
O=C(c1c(-c2ncccn2)nn2c(=O)cc(-c3ccc(C4CCCCC4)cc3)[nH]c12)N1CC(CF)C1 [Compound 15, 5-(4-Cyclohexylphenyl)-3-(3-(fluoromethyl)azetidine-1-carbonyl)-2-(pyrimidin-2-yl)pyrazolo[1,5-a]pyrimidin-7(4H)-one]	50.5	7.52	62.0	8.00	64.0	7.40	64.0	7.15	49.0	7.70	55.8	7.15	64.8	8.00	74.0	7.52
O=C(c1c(-c2ccccn2)nn2c(=O)cc(-c3ccc(C4CCCCC4)cc3)[nH]c12)N1CC(CF)C1 [Compound 16, 5-(4-Cyclohexylphenyl)-3-(3-(fluoromethyl)azetidine-1-carbonyl)-2-(pyridin-2-yl)pyrazolo[1,5-a]pyrimidin-7(4H)-one]	40.5	7.70	53.5	8.00	59.5	7.30	55.0	7.10	38.0	7.70	44.5	7.10	57.5	8.00	70.0	7.22
O=C(c1c(-c2cnccn2)nn2c(=O)cc(-c3ccc(C4CCCCC4)cc3)[nH]c12)N1CC(CF)C1 [Compound 17, 5-(4-Cyclohexylphenyl)-3-(3-(fluoromethyl)azetidine-1-carbonyl)-2-(pyrazin-2-yl)pyrazolo[1,5-a]pyrimidin-7(4H)-one]	42.0	7.40	60.9	8.00	60.6	7.40	63.3	7.22	34.9	7.52	53.9	7.22	61.6	8.00	69.0	7.52
Cc1ccnc(-c2nn3c(=O)cc(-c4ccc(C5CCCCC5)cc4)[nH]c3c2C(=O)N2CC(CF)C2)c1 [Compound 18, 5-(4-Cyclohexylphenyl)-3-(3-(fluoromethyl)azetidine-1-carbonyl)-2-(4-methylpvridin-2-yl)pyrazolo[1,5-a]pyrimidin-7(4H)-one]	47.0	7.70	55.5	8.00	67.0	7.22	54.5	7.05	49.0	7.70	43.0	7.05	58.5	8.00	73.0	7.30
O=C(c1c(-c2ncco2)nn2c(=O)cc(-c3ccc(C4CCCCC4)cc3)[nH]c12)N1CC(CF)C1 [Compound 19, 5-(4-Cyclohexylphenyl)-3-(3-(fluoromethyl)azetidine-1-carbonyl)-2-(oxazol-2-yl)pyrazolo[1,5-a]pyrimidin-7(4H)-one]	46.0	7.22	63.5	8.00	59.5	7.15	60.0	7.22	38.5	7.30	53.0	7.22	67.5	8.00	69.0	7.40
Cc1nccnc1-c1nn2c(=O)cc(-c3ccc(C4CCCCC4)cc3)[nH]c2c1C(=O)N(C)C [Compound 20, 5-(4-Cyclohexylphenyl)-N,N-dimethyl-2-(3-methylpyrazin-2-yl)-7-oxo-4,7-dihydropyrazolo[1,5-a]pyrimidine-3-carboxamide]	37.0	6.09	50.5	7.70	63.0	7.30	65.5	7.30	34.5	6.03	56.5	7.15	53.5	7.70	72.0	7.30
Cc1nccnc1-c1nn2c(=O)cc(-c3ccc(C4CCCCC4)c(F)c3)[nH]c2c1C(=O)N1CC(CF)C1 [Compound 21, 5-(4-cyclohexyl-3-fluorophenyl)-3-(3-(fluoromethyl)azetidine-1-carbonyl)-2-(3-methylpyrazin-2-yl)pyrazolo[1,5-a]pyrimidin-7(4H)-one]	49.5	7.52	61.5	8.00	71.5	7.40	69.5	7.10	51.0	7.52	69.5	7.05	62.5	8.00	74.0	7.40
